The values that follow are results of earlier work, collected in patent US7960102B2, “Regulated aptamer therapeutics” (Archemix Corp., priority 2002, dated 2011).

This data set has as its target N1 aptamer. Particulars: 10 nM labeled N1 aptamer, 1×SB, room temperature, three experiments; read-out: Kd of neomycin for aptamer (protection from T1 cleavage at G27).

Consider neomycin, for which the Kd is 940 ± 60 nM.

By Kd is commonly meant a measure of binding affinity in units of concentration.
